The test system of this experiment is Nrf2. The experiment in a line: Evaluation of Nrf2 activation ability (Nrf2d-LacZ / Keap1 HEK293 reporter, Beta-Glo luminescence). Type of experiment: cell-based, human. Summed up: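 HEK293 cells stably expressing a human Nrf2 degron–LacZ fusion plus human Keap1 were exposed to compound for 3 h at 37° C. Reporter β-galactosidase was read by Beta-Glo luminescence after 1 h at RT. Activation is given as % of the signal with 100 nM CDDO-Im.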

[1] abbreviates: rated A/B/C, Pharmacological Test Example 1.
[2] abbreviates: Pharmacological Test Example 1, rated A/B/C.

The text below walks through data of patent US10201531B2, “Indazolyl-oxo-isothiazole compounds” (MOCHIDA PHARMACEUTICAL CO., LTD., priority 2015, dated 2019).

Usually EC50 stands for the concentration needed to bring the measured effect to its halfway point. A low value points to greater potency.

Molecules are shown by their SMILES.

Under setting [1], `[O-][s+]1nc(O)cc1-n1ncc2cc(C(F)(F)F)ccc21` (centres unmarked) [Example 14] showed a concentration giving a half-maximal response (EC50) of less than 1000 nM.

Consider `Cc1cc2cnn(-c3cc(O)n[s+]3[O-])c2cc1C` (centres unmarked) [Example 18], for which the EC50 under setting [1] is less than 1000 nM.

Under setting [1], `O=C(NC1CC1)c1ccc(-c2ccc3c(cnn3-c3cc(O)n[s+]3[O-])c2)cc1` (centres unmarked) [Example 68] registered an EC50 of 1000 to 5000 nM.

`CN1CCOc2nc(-c3ccc4c(cnn4-c4cc(O)n[s+]4[O-])c3)ncc21` (centres unmarked) [Example 215] returned an EC50 under setting [1] of less than 1000 nM.

As to `Cn1nc(-c2ccc3c(cnn3-c3cc(O)n[s+]3[O-])c2)c2ccccc21` (centres unmarked) [Example 224], the EC50 under setting [1] is less than 1000 nM.

Molecule `Cc1cc2cnn(-c3cc(O)n[s+]3[O-])c2cn1` (centres unmarked) [Example 229] yielded an EC50 under setting [1] of 1000 to 5000 nM.

As to `CC1(C)C(=O)N(CC2CC2)c2ccc(-c3cnn(-c4cc(O)n[s+]4[O-])c3)cc21` (centres unmarked) [Example 430], the concentration for a half-maximal effect (EC50) under setting [2] lay in the range of 1000 to 5000 nM.

Turning to `[O-][s+]1nc(O)cc1-n1ncc2c(-c3ccc(C4CC4)nc3)cccc21` (centres unmarked) [Example 98], the EC50 under setting [1] lay in the range of 1000 to 5000 nM.

Turning to `[O-][s+]1nc(O)cc1-n1ncc2cc(-c3cnc4c(c3)OCCN4CC3CCC3)ccc21` (centres unmarked) [Example 162], the half-maximal effective concentration (EC50) under setting [1] is less than 1000 nM.

For `[O-][s+]1nc(O)cc1-n1cc(-c2ccc3ncccc3c2)cn1` (centres unmarked) [Example 350], the EC50 under setting [2] was less than 1000 nM.

For the molecule `[O-][s+]1nc(O)cc1-n1ncc2cccnc21` (centres unmarked) [Example 238], the concentration for a half-maximal effect (EC50) under setting [1] was in the range of 1000 to 5000 nM.

In the case of `[O-][s+]1nc(O)cc1-n1cc(-c2ccc(C(F)(F)F)nc2)cn1` (centres unmarked) [Example 396], the concentration for a half-maximal effect (EC50) under setting [2] lay within 1000 to 5000 nM.

With `Cc1cncc(-c2cnn(-c3cc(O)n[s+]3[O-])c2)n1` (centres unmarked) [Example 416], under setting [2], the EC50 lay in the range of 1000 to 5000 nM.

Take `Cc1cncc(-c2ccc3c(cnn3-c3cc(O)n[s+]3[O-])c2)n1` (centres unmarked) [Example 118]: under setting [1], the EC50 lay in the range of 1000 to 5000 nM.

`[O-][s+]1nc(O)cc1-n1cc(C2CCOCC2)cn1` (centres unmarked) [Example 308] returned a concentration giving a half-maximal response (EC50) under setting [1] of 5000 to 10000 nM.

Take `[O-][s+]1nc(O)cc1-n1cc2cc(-c3cnccn3)ccc2n1` (centres unmarked) [Example 417]: under setting [2], the EC50 lay within 1000 to 5000 nM.

In turn, `COCC1CCCN1c1ccc(-c2ccc3c(cnn3-c3cc(O)n[s+]3[O-])c2)cn1` (centres unmarked) [Example 198] gave an EC50 under setting [1] of less than 1000 nM.

Turning to `[O-][s+]1nc(O)cc1-n1ncc2ccc(-c3ccc(C4CC4)nc3)cc21` (centres unmarked) [Example 111], under setting [1], the EC50 lay in the range of 1000 to 5000 nM.

As to `CN1CCOc2cc(-c3ccc4c(c3)c(C3CC3)nn4-c3cc(O)n[s+]3[O-])cnc21` (centres unmarked) [Example 216], the half-maximal effective concentration (EC50) under setting [1] is 1000 to 5000 nM.

Under setting [2], `COc1nc(-c2ccc(N3CCCC3)nc2)ccc1-c1cnn(-c2cc(O)n[s+]2[O-])c1` (single isomer, unassigned) [Example 453] gave an EC50 of less than 1000 nM.

Consider `[O-][s+]1nc(O)cc1-n1ncc2cc(Oc3ccccc3)ccc21` (centres unmarked) [Example 148], for which the EC50 under setting [1] lay within 1000 to 5000 nM.

For the molecule `COc1cc(-c2ccnc(N3CCCCC3)c2)c2cnn(-c3cc(O)n[s+]3[O-])c2c1` (centres unmarked) [Example 176], the half-maximal effective concentration (EC50) under setting [1] lay in the range of 1000 to 5000 nM.

Molecule `[O-][s+]1nc(O)cc1-n1cc(-c2cc(C(F)(F)F)cc(C(F)(F)F)c2)cn1` (centres unmarked) [Example 368] returned an EC50 under setting [2] of less than 1000 nM.

`COc1ccc2c(cnn2-c2cc(O)n[s+]2[O-])c1` (centres unmarked) [Example 24]: under setting [1], the EC50 lay within 1000 to 5000 nM.

With `[O-][s+]1nc(O)cc1-n1cc(-c2cccc3cccnc23)cn1` (centres unmarked) [Example 382], the concentration giving a half-maximal response (EC50) under setting [2] was less than 1000 nM.

Regarding `[O-][s+]1nc(O)cc1-n1ncc2cc(-c3cnc4c(c3)OCCCN4)ccc21` (centres unmarked) [Example 190], the EC50 under setting [1] was less than 1000 nM.

Take `[O-][s+]1nc(O)cc1-n1ncc2ccc(-c3ccccc3)cc21` (centres unmarked) [Example 78]: under setting [1], the concentration giving a half-maximal response (EC50) is 1000 to 5000 nM.

Under setting [1], `COc1ccc(CN2CCc3c(cnn3-c3cc(O)n[s+]3[O-])C2)cn1` (centres unmarked) [Example 261] yielded a concentration for a half-maximal effect (EC50) of 1000 to 5000 nM.

`[O-][s+]1nc(O)cc1-n1cc(-c2cccc3ccccc23)cn1` (centres unmarked) [Example 341] registered a half-maximal effective concentration (EC50) under setting [2] of 1000 to 5000 nM.

For `[O-][s+]1nc(O)cc1-n1ncc2cc(-c3cn[nH]c3)ccc21` (centres unmarked) [Example 51], under setting [1], the EC50 is 5000 to 10000 nM.

On to `Cc1nn(-c2cc(O)n[s+]2[O-])c(C)c1C1=CCCCC1` (centres unmarked) [Example 315], for which the 50% effective concentration (EC50) under setting [2] lay in the range of 1000 to 5000 nM.

`COc1cc(-c2ccc(C3CC3)nc2)cc2c1cnn2-c1cc(O)n[s+]1[O-]` (centres unmarked) [Example 203]: under setting [1], the EC50 is less than 1000 nM.

Under setting [1], `CC(C)CN1CCOc2cc(-c3ccc4c(cnn4-c4cc(O)n[s+]4[O-])c3)cnc21` (centres unmarked) [Example 160] gave an EC50 of less than 1000 nM.

In the case of `CC1(C)COc2cc(-c3ccc4c(cnn4-c4cc(O)n[s+]4[O-])c3)cnc2N1` (centres unmarked) [Example 217], the EC50 under setting [1] was less than 1000 nM.

Under setting [1], `N#Cc1cccc(-c2ccc3c(cnn3-c3cc(O)n[s+]3[O-])c2)n1` (centres unmarked) [Example 120] yielded an EC50 of 1000 to 5000 nM.

`Cn1ccc2ccc(-c3cnn(-c4cc(O)n[s+]4[O-])c3)cc21` (centres unmarked) [Example 353] came in with an EC50 under setting [2] of less than 1000 nM.

`Cc1cccc2c1cnn2-c1cc(O)n[s+]1[O-]` (centres unmarked) [Example 23] yielded a 50% effective concentration (EC50) under setting [1] of 1000 to 5000 nM.

`COc1cc(-c2ccc(N3CCCCC3)nc2)c2cnn(-c3cc(O)n[s+]3[O-])c2c1` (centres unmarked) [Example 180]: the half-maximal effective concentration (EC50) under setting [1] was less than 1000 nM.

`CN1CC(C)(C)Oc2cc(-c3ccc4c(cnn4-c4cc(O)n[s+]4[O-])c3)cnc21` (centres unmarked) [Example 188] came in with a half-maximal effective concentration (EC50) under setting [1] of less than 1000 nM.

The molecule `N#Cc1nn(-c2cc(O)n[s+]2[O-])c2ccc(Cl)cc12` (centres unmarked) [Example 21] gave a 50% effective concentration (EC50) under setting [1] of 1000 to 5000 nM.

As for `[O-][s+]1nc(O)cc1-n1ncc2cc(-c3ccccc3Cl)ccc21` (centres unmarked) [Example 40], the EC50 under setting [1] is less than 1000 nM.

For `[O-][s+]1nc(O)cc1-n1cc(CCOc2cccnc2)cn1` (centres unmarked) [Example 412], the 50% effective concentration (EC50) under setting [2] was 1000 to 5000 nM.

`[O-][s+]1nc(O)cc1-n1cc(-c2cnccn2)cn1` (centres unmarked) [Example 407] gave a 50% effective concentration (EC50) under setting [2] of 1000 to 5000 nM.

With `[O-][s+]1nc(O)cc1-n1ncc2cc(-c3ccc(N4CCC(F)(F)C4)nc3)ccc21` (centres unmarked) [Example 182], under setting [1], the EC50 was less than 1000 nM.

`[O-][s+]1nc(O)cc1-n1ncc2c(-c3ccccc3)cccc21` (centres unmarked) [Example 79] showed an EC50 under setting [1] of 1000 to 5000 nM.

Under setting [1], `O=C(C1CC1(F)F)N1CCOc2cc(-c3ccc4c(cnn4-c4cc(O)n[s+]4[O-])c3)cnc21` (centres unmarked) [Example 151] registered an EC50 of less than 1000 nM.

On to `CN(C)c1ccc(-c2ccc3c(cnn3-c3cc(O)n[s+]3[O-])c2)cn1` (centres unmarked) [Example 136], for which, under setting [1], the EC50 was less than 1000 nM.

As for `[O-][s+]1nc(O)cc1-n1ncc2c1CN(Cc1ccc(C(F)(F)F)nc1)C2` (centres unmarked) [Example 265], the 50% effective concentration (EC50) under setting [1] lay in the range of 5000 to 10000 nM.

In turn, `[O-][s+]1nc(O)cc1-n1cc(-c2ccc(OCc3cccc(C(F)(F)F)c3)cc2)cn1` (centres unmarked) [Example 375] had an EC50 under setting [2] of 1000 to 5000 nM.

As to `[O-][s+]1nc(O)cc1-n1cc(-c2ncccn2)cn1` (centres unmarked) [Example 423], under setting [2], the 50% effective concentration (EC50) fell in the range of 1000 to 5000 nM.

Regarding `[O-][s+]1nc(O)cc1-n1ncc2cc(-c3ccccc3)ccc21` (centres unmarked) [Example 28], under setting [1], the concentration giving a half-maximal response (EC50) is 1000 to 5000 nM.

`CC(C)(C)OC(=O)N1Cc2cn(-c3cc(O)n[s+]3[O-])nc2C1` (centres unmarked) [Example 246] gave an EC50 under setting [1] of 1000 to 5000 nM.

`[O-][s+]1nc(O)cc1-n1cc(-c2ccccc2Oc2ccccc2)cn1` (centres unmarked) [Example 335] gave a half-maximal effective concentration (EC50) under setting [2] of 1000 to 5000 nM.

Turning to `[O-][s+]1nc(O)cc1-n1cc2c(n1)CCN(Cc1ccccc1)C2` (single isomer, unassigned) [Example 256], the EC50 under setting [1] lay within 1000 to 5000 nM.

As for `[O-][s+]1nc(O)cc1-n1ncc2cc(-c3cnc4c(c3)OCCN4)ccc21` (centres unmarked) [Example 152], the EC50 under setting [1] was 1000 to 5000 nM.

As for `[O-][s+]1nc(O)cc1-n1ncc2cc(-c3ccc(Cl)cn3)ccc21` (centres unmarked) [Example 121], the EC50 under setting [1] fell in the range of 1000 to 5000 nM.
